Source: patent publication US6852722B2, “Compositions and methods for stimulating gastrointestinal mobility” (Pfizer Inc., priority 2000, dated 2005)

Tested on: Male CD Sprague-Dawley rats
Assay: Gastrointestinal transit in rats (51Cr marker: gastric emptying and geometric center)
Format: in vivo, rat
Settings: for effect on gastrointestinal transit: 0.1 mg/kg oral; for % Gastric Emptying: 51Cr marker 15 min after dose, killed 20 min later; for % Gastric Emptying / Geometric Center: mean ± SEM; for Geometric Center: stomach = segment 0, intestine segments 1-10; for increase in gastric emptying / increase in geometric center (transit through stomach and small intestine): relative to vehicle
Procedure: Male CD Sprague-Dawley rats (175-225 grams) are fitted with tail cups to prevent coprophagy and fasted overnight. The next day the rats are orally given either vehicle (water, 5 ml/kg) or a solution of the test compound in water at doses of 0.1, 0.5, 1 or 5 mg/kg p.o. Fifteen minutes later, the rats are given 1.0 ml of an evaporated milk solution containing 20,000 cpm of ^51Cr as sodium chromate.
The rats are killed 20 minutes after administration of the radioactive marker. The gastroesophageal, pyloric, and ileocecal junctions are ligated, the stomach is removed and the small intestine is divided into ten equal lengths. The stomach and each length of intestine are assayed for radioactivity with a gamma counter. Gastric emptying is determined for each rat by comparing the amount of radioactivity in the intestine relative to the total in the intestine plus stomach. In addition, the geometric center of the distribution of the radioactive marker is used to measure the overall transit rate through the stomach and intestine. Geometric center is calculated as: Σ((fraction of ^51Cr per segment)×(segment number)). For these calculations the stomach is segment number 0 while the ten intestinal segments are designated 1 to 10. Thus, a geometric center of 0.0 would indicate that the entire load of ^51Cr had remained in the stomach.
Results from test compound-treated rats and vehicle-treated rats are compared using one-way ANOVA and Dunnett's test for simultaneous multiple comparisons. The effect of the test compound on gastrointestinal transit in rats is evaluated by measuring gastric emptying and the geometric center of distribution of an orally administered radioactive marker.

With `CN1N=C2CCN(C(=O)[C@@H](COCc3ccccc3)NC(=O)C(C)(C)N)C[C@@]2(Cc2ccccc2)C1=O` [first test compound, 2-amino-N-(2-(3a-(R)-benzyl-2-methyl-3-oxo-2,3,3a,4,6,7-hexahydro-pyrazolo-[4,3-c]pyridin-5-yl)-1-(R)-benzyloxymethyl-2-oxo-ethyl)-isobutyramide] the “effect on gastrointestinal transit” value was “no effect”, the “% Gastric Emptying” value (0.1 mg/kg p.o.) was 62.5 ± 3.4% and the “Geometric Center” value (0.1 mg/kg p.o.) was 2.82 ± 0.17. For the same compound, the “increase in gastric emptying” value (0.5 mg/kg oral) was 25%, the “increase in geometric center (transit through stomach and small intestine)” value (shortened to “increase in geometric center”) (0.5 mg/kg oral) was 39% and the “% Gastric Emptying” value (0.5 mg/kg p.o.) was “*79.0 ± 4.2%”. The “Geometric Center” value (0.5 mg/kg p.o.) was “*4.03 ± 0.26”, the “increase in geometric center” value (1 mg/kg oral) was 67% and the “increase in gastric emptying” value (1.0 mg/kg oral) was 45%. For the same compound, the “% Gastric Emptying” value (1 mg/kg p.o.) was 92%, the “% Gastric Emptying” value (1 mg/kg p.o., listed as 1st test compound) was “*91.5 ± 1.6%” and the “Geometric Center” value (1 mg/kg p.o.) was “*4.81 ± 0.21”. The “increase in geometric center” value (5 mg/kg oral) was 68%, the “increase in gastric emptying” value (5.0 mg/kg oral) was 49% and the “% Gastric Emptying” value (5 mg/kg p.o.) was 94%. The “% Gastric Emptying” value (5 mg/kg p.o., listed as 1st test compound) was “*93.7 ± 1.4%” and the “Geometric Center” value (5 mg/kg p.o.) was “*4.85 ± 0.19”.

For `CC(C)(N)C(=O)N[C@H](COCc1ccc(F)cc1F)C(=O)N1CCC2=NN(CC(F)(F)F)C(=O)[C@]2(Cc2ccccn2)C1` [second test compound], the “effect on gastrointestinal transit” value was “no effect”, the “% Gastric Emptying” value (0.1 mg/kg p.o.) was 68.9 ± 3.4% and the “Geometric Center” value (0.1 mg/kg p.o.) was 3.1 ± 0.2. For the same compound, the “increase in gastric emptying” value (0.5 mg/kg oral) was 21%, the “increase in geometric center” value (0.5 mg/kg oral) was 37% and the “% Gastric Emptying” value (0.5 mg/kg p.o.) was “*79.5 ± 3.6%”. The “Geometric Center” value (0.5 mg/kg p.o.) was “*3.9 ± 0.3”, the “increase in geometric center” value (1 mg/kg oral) was 50% and the “increase in gastric emptying” value (1.0 mg/kg oral) was 37%. For the same compound, the “% Gastric Emptying” value (1 mg/kg p.o.) was “*89.9 ± 2.3%”, the “Geometric Center” value (1 mg/kg p.o.) was “*4.3 ± 0.2” and the “increase in geometric center” value (5 mg/kg oral) was 42%. For the same compound, the “increase in gastric emptying” value (5.0 mg/kg oral) was 34%, the “% Gastric Emptying” value (5 mg/kg p.o.) was “*88.3 ± 2.4%” and the “Geometric Center” value (5 mg/kg p.o.) was “*4.1 ± 0.2”. The “gastric emptying and transport through the upper GI tract” value (doses of 0.5, 1 and 5 mg/kg oral) was “increased”.
